Assay results reported in ChEMBL document CHEMBL3272150, “Studies on antianaphylactic agents. 5. Synthesis of 3-(1H-tetrazol-5-yl)chromones, a new series of antiallergic substances” (J Med Chem, 1977).
Activity calls are given as the source filed them. The rule behind the calls is not given here.

Experiments:
Rattus norvegicus [1] = test: Antiallergic activity in iv dosed Sprague-Dawley rat assessed as inhibition of egg albumin-induced passive cutaneous anaphylaxis administered immediately prior to egg albumin challenge measured after 30 mins by Evan blue dye leakage assay relative to disodium cromoglycate; type: functional
Rattus norvegicus [2] = test: Antiallergic activity in po dosed Sprague-Dawley rat assessed as inhibition of egg albumin-induced passive cutaneous anaphylaxis administered 5 mins prior to egg albumin challenge measured after 30 mins by Evan blue dye leakage assay; type: functional; settings: read-out: ID50 (the source's name)
[3] = Dissociation constant, pKa of the compound; type: physicochemical
Rattus norvegicus [4] = test: Antiallergic activity in Sprague-Dawley rat assessed as inhibition of egg albumin-induced passive cutaneous anaphylaxis up to 20 mg/kg, iv administered immediately prior to egg albumin challenge measured after 30 mins by Evan blue dye leakage assay; type: functional, organism-based; design: dose 20 mg/kg

Row | SMILES | fold change (FC) (Rattus norvegicus [1]) | other results
1 | O=c1c(-c2nnn[nH]2)coc2ccc(Cl)cc12 | 4 | –
2 | O=c1c(-c2nnn[nH]2)coc2c1ccc1ccccc12 | 8.3 | ED50 (Rattus norvegicus [2]): 7.4 mg/kg
3 | O=c1c(/C=C/c2nnn[nH]2)coc2ccccc12 | 0.3 | –
4 | O=c1c(-c2nnn[nH]2)coc2cc(O)ccc12 | 1.1 | –
5 | CN(C)c1ccc2occ(-c3nnn[nH]3)c(=O)c2c1 | 2.3 | –
6 | CCc1ccc2occ(-c3nnn[nH]3)c(=O)c2c1 | 4 | ED50 (Rattus norvegicus [2]): 6.9 mg/kg
7 | Cc1cc(C)c2occ(-c3nnn[nH]3)c(=O)c2c1 | 11.6 | ED50 (Rattus norvegicus [2]): 1.25 mg/kg
8 | N#Cc1coc2ccccc2c1=O | – | pKa [3]: 5.85
9 | O=c1cc(-c2nnn[nH]2)oc2ccccc12 | 1.4 | –
10 | O=c1c(-c2nnn[nH]2)coc2ccccc12 | 3.5 | ED50 (Rattus norvegicus [2]): 5.3 mg/kg
11 | Cc1nnc(-c2coc3ccccc3c2=O)o1 | – | inhibition (Rattus norvegicus [4]): inactive
12 | O=C(O)c1coc2ccccc2c1=O | – | pKa [3]: 8.85
13 | CCCCCCc1ccc2occ(-c3nnn[nH]3)c(=O)c2c1 | 0.6 | –
14 | Cc1oc2ccccc2c(=O)c1Cc1nnn[nH]1 | – | inhibition (Rattus norvegicus [4]): inactive
15 | CCCCc1ccc2occ(-c3nnn[nH]3)c(=O)c2c1 | 1.8 | –
16 | O=C(Cc1nnn[nH]1)c1ccccc1O | 0.35 | –

Row | SMILES | fold change (FC) (Rattus norvegicus [1]) | other results
17 | O=c1c(-c2nnn[nH]2)coc2ccc3ccccc3c12 | 5 | ED50 (Rattus norvegicus [2]): 8.5 mg/kg
18 | Cc1ccc2occ(-c3nnn[nH]3)c(=O)c2c1 | 2.4 | ED50 (Rattus norvegicus [2]): 10 mg/kg
19 | O=c1c(-c2nnn[nH]2)coc2ccc(C3CCCCC3)cc12 | 0.5 | –
20 | O=C([O-])c1cc(=O)c2c(OCC(O)COc3cccc4oc(C(=O)[O-])cc(=O)c34)cccc2o1.[Na+].[Na+] [CROMOLYN SODIUM] | – | ED50 (Rattus norvegicus [2]): > 100 mg/kg
21 | CC(C)(C)n1nnc(-c2coc3ccccc3c2=O)n1 | – | inhibition (Rattus norvegicus [4]): inactive
22 | Cc1oc2ccccc2c(=O)c1-c1nnn[nH]1 | 0.1 | –
23 | CCCCc1ccc2occ(/C=C/c3nnn[nH]3)c(=O)c2c1 | 0.07 | –
24 | CCCCOc1ccc2c(=O)c(-c3nnn[nH]3)coc2c1 | 0.9 | –
25 | O=c1c(CCc2nnn[nH]2)coc2ccccc12 | 0.07 | –
26 | O=c1c(-c2nnn[nH]2)coc2cc(O)c(O)cc12 | 1.8 | –
27 | O=c1c(-c2nnn[nH]2)coc2ccc(O)cc12 | 4.5 | –
28 | O=c1c(-c2nnn[nH]2)coc2ccc([N+](=O)[O-])cc12 | 4 | –
29 | COc1ccc2occ(-c3nnn[nH]3)c(=O)c2c1 | 2.2 | ED50 (Rattus norvegicus [2]): 7 mg/kg
30 | CC(C)c1ccc2occ(-c3nnn[nH]3)c(=O)c2c1 | 3.4 | ED50 (Rattus norvegicus [2]): 17 mg/kg
31 | CCOC(=O)c1ccc2occ(-c3nnn[nH]3)c(=O)c2c1 | 2.9 | –
32 | CCCc1ccc2occ(-c3nnn[nH]3)c(=O)c2c1 | 3.4 | –
